In patent publication US20240417400A1, “ARYL HYDROCARBON RECEPTOR (AHR) MODULATORS AND THERAPEUTIC USES THEREOF” (GALILEO BIOSYSTEMS, INC., priority 2021, published 2024):

How the values were obtained:
Assay type in all cases: cell-based
human keratinocytes [1] = assay: Inflammation of human keratinocytes induced by IL-17 and IFN-α: IL-8 release and cell viability; settings: IL-17 and IFN-α induced, FIGS. 4A, 4B
Excerpt: (§1) The cells were exposed to Compound 6 or tapiranof and measured for inhibition of IL-8 release and cell viability. FIG. 4A depicts concentration response curves of inhibition of IL-8 release and cell viability for Compound 6. FIG. 4B depicts concentration response curves of inhibition of IL-8 release and cell viability for tapiranof.

human keratinocytes [2] = assay: Inflammation of human keratinocytes induced by IL-4, IL-13, IL-22 and IFN-γ: CCL2 release and cell viability; settings: IL-4, IL-13, IL-22 and IFN-γ induced, FIGS. 3A, 3B
Excerpt: as §1, with “Inflammation of human keratinocytes was induced by IL-4, IL-13, IL-22 and IFN-γ. The” for “The”, “CCL2” for “IL-8”, “3A” for “4A”, “3B” for “4B”

[3] = system: gene expression biomarkers (CYP1A1, CCL17/TARC, CCL26/Eotaxin-3, Filaggrin) in freshly excised healthy human skin; assay: Gene expression biomarker activity screen in stimulated human skin explants (RT-qPCR); settings: 10 μM in media, harvested 24 hours post stimulation
Method: Compound 6 and comparative compound tapinarof are evaluated for their ability to inhibit production of gene expression biomarkers using the biomarkers panel described in the below tables. Each compound is dissolved in DMSO at a dilution volume of 1000× and the resultant solutions are stored at −80° C. Concentrations tested include 1 μM, 5 μM, 10 μM, and 25 μM. Freshly excised healthy human skin is dermatomed to an approximate thickness of 750±100 μm using an Integra® dermatome according to US-SOP-3005 and US-SOP-3006. The dermatomed skin is sectioned into 7 mm biopsies and placed into 6.5 mm permeable membrane Transwell@ inserts with the Stratum corneum side apical and a section of collagen between the basal dermal tissue and the permeable membrane (n=4 per test sample). The Transwell® inserts have an average surface area of approximately 0.33 cm^2 and a volume of 0.5 mL. The basal chambers of the inserts are filled with 0.5 mL of Cornification media and the compound solutions are added to the media to a concentration of 10 μM. The inserts are stored in a humidified incubator overnight at 37° C. for approximately 16 hours. The contents of the basal chambers are vacuum aspirated and replaced with 0.5 mL of pre-warmed (ca. 37° C.) Cornification media containing the compound at a concentration of 10 μM and stimulation cocktail. Tissue explants are harvested at 24 hours post stimulation to measure production of the gene expression biomarkers by quantitative reverse transcription polymerase chain reaction (RT-qPCR). […] The test samples include untreated vehicle (control), TH1 stimulation control, TH2 stimulation control, TH17 stimulation control, tapinarof, and Compound 6.

T-cells = assay: Inflammation of T-cells induced by CD2, CD3 and CD28: IL-2 and IL-4 release; settings: at the highest test concentrations, FIGS. 5A, 5B
Excerpt: as §1, with “Inflammation of T-cells were induced by CD2, CD3, and CD28. The” for “The”, “IL-2 and IL-4” for “IL-8”, “5A” for “4A”, “5B” for “4B”

Row | production of CYP1A1 (gene expression) ([3]; FIG. 1A) | production of CCL17/TARC (gene expression) ([3]; FIG. 1B) | production of CCL26/Eotaxin-3 (gene expression) ([3]; FIG. 1C) | production of Filaggrin (gene expression) ([3]; FIG. 1D) | SMILES | inhibition of IL-8 release (human keratinocytes [1]) | cell viability (human keratinocytes [2]) | inhibition of CCL2 release (human keratinocytes [2]) | inhibition of IL-2 release (T-cells) | inhibition of IL-4 release (T-cells)
1 | significant induction | reduction/inhibition | reduction/inhibition | significant induction | O=c1c2ccccc2nc2n1CCc1c-2[nH]c2ccccc12 [Compound 6] | inhibited release of IL-8 | did not affect cell viability | inhibited release of CCL2 | inhibited release of IL-2 | inhibited
2 | – | – | – | – | CC(C)c1c(O)cc(/C=C/c2ccccc2)cc1O [tapiranof, tapinarof, reference compound] | inhibited release of IL-8 | inhibition of cell viability at higher concentrations | inhibited release of CCL2 | inhibited release of IL-2 | inhibited
